Assay: Inhibition of Aurora A kinase in human HeLa Kyoto cells assessed as induction of defective chromosome alignment during metaphase incubated for 20 hrs

EC50: 6 µM
SMILES: CCc1ccc(/N=C2\S/C(=C\c3ccnc(Nc4ccc(C(=O)O)cn4)c3)C(=O)N2C)cc1
